# Counter-ions that a name gives are not always drawn.
# How the values were obtained:
# Type in all cases: physicochemical
# [1] = Solubility of the salt in different solvents
# [2] = Hygroscopicity of the salt
# [3] = Chemical and physical stability of the salt; details: different conditions of humidity and temperature
# [4] = Particle size distribution after jet milling (micronization); details: micronized batch
# Text: A batch of formoterol fumarate dihydrate is milled in a nitrogen fluid jet mill apparatus MC 50 (JET Pharma S.A).
# [5] = Dispersion of the micronized salt in the carrier by Near Infrared microscopy imaging (Near Imaging); details: micronized form, after 180 minute of mixing
# Method: As it can be appreciated from Table 6, upon milling, the salt of the present invention remains crystalline and its chemical purity is not altered. The batch is then added to a carrier made of coarser particles.
# The homogeneous dispersion of the active ingredient in the powder, and the absence of aggregates of active particles is established using a Near Infrared spectrophotometer equipped with a microscopy imaging system (Near Imaging).
compound,measurement,setting,value
"COc1ccc(CC(C)NCC(O)c2ccc(O)c3[nH]c(=O)ccc23)cc1 [Carmoterol hemi-fumarate, 8-hydroxy-5-[(1R)-1-hydroxy-2-[[(1R)-2-(4-methoxyphenyl)-1-methylethyl]amino]ethyl]-2(1H)-quinolinone (carmoterol) hemi-fumarate salt]",Solubility in HFA propellants,[1]; HFA propellants,practically insoluble
same,Solubility in Vertrel XF,"[1]; solvent: Vertrel XF (2,3-dihydodecafluoropentane, simulates HFA propellants), l.o.d. = limit of detection",<l.o.d.^(2)
same,Solubility in Acetone,[1]; solvent: acetone,"0.008 %, w/v"
same,Solubility in Ethanol,[1]; solvent: ethanol,"0.27 %, w/v"
same,solubility,[1]; solvent: water,13.6 mg/mL
same,Hygroscopicity,[2],non-hygroscopic
same,Chemical and physical stability,[3],chemically and physically stable
same,"Particle size d (v, 0.1)",[4],0.79 μm
same,"Particle size d (v, 0.5)",[4],3.73 μm
same,"Particle size d (v, 0.9)",[4],7.58 μm
same,Agglomerates after mixing with carrier,[5],no agglomerates are observed

# Reference: patent publication US20110044913A1, “8-HYDROXY-5-[(1R)-1-HYDROXY-2-[[(1R)-2-(4-METHOXYPHENYL)-1-METHYLETHYL]AMINO]ETHYL]-2(1H)-QUINOLINONE HEMI-FUMARATE” (Chiesi Farmaceutici S.p.A., priority 2009, published 2011)
